Measured values taken from patent publication US9873696B2, “Neprilysin inhibitors” (THERAVANCE BIOPHARMA R&D IP, LLC, priority 2010, dated 2018).

The molecules below were run against T1, human NEP (Homo sapiens, UniProt P08473) (assay: In vitro enzyme inhibition assay at human NEP (Assay 1)). Settings: recombinant enzyme, fluorogenic peptide substrate, 37° C.
T1 construct: purchased R&D Systems, Minneapolis, Minn; 1182-ZN
Format: biochemical
Outline: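 Recombinant enzyme preincubated with compound 30 min at 37 °C, then 10 μM Mca-D-Arg-Arg-Leu-Dap-(Dnp)-OH added in 50 mM HEPES pH 7.5, 100 mM NaCl, 0.01% Tween-20, 10 μM ZnSO4; stopped after 20 min with acetic acid. Fluorescence read at 320/405 nm; Ki from nonlinear fit of v=v0/[1+(I/K′)], reported as pKi.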

T1 sequence (P08473 whole entry): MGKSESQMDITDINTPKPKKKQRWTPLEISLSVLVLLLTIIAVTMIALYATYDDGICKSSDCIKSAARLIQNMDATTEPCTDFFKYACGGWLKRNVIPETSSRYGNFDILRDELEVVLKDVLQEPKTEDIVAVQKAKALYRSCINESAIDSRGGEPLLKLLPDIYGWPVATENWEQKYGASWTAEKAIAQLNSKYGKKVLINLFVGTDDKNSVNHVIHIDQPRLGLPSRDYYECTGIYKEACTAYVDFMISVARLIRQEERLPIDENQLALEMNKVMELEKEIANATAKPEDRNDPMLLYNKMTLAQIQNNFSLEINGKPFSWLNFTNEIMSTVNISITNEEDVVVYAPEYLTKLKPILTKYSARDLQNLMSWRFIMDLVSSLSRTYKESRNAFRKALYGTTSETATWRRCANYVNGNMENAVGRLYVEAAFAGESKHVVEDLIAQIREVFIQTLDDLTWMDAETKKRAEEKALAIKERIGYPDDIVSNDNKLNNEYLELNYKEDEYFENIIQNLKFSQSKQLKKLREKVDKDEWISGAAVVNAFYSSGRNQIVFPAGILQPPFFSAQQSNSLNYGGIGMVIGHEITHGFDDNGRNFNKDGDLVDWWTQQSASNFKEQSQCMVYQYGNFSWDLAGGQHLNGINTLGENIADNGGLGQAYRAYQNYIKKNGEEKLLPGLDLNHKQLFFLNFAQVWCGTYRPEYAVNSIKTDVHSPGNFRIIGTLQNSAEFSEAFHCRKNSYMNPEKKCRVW

Structure (SMILES)	Ki [nM]
CC(=O)c1cc(C(=O)NN(Cc2ccc(-c3cc(Cl)ccc3Cl)cc2)C[C@H](O)C(=O)O)[nH]n1 [Example 8-48, (S)-3-[N′-(5-Acetyl-2H-pyrazole-3-carbonyl)-N-(2′,5′-dichloro-biphenyl-4-ylmethyl)-hydrazino]-2-hydroxy-propionic acid]	1.26 to 10
COc1ccccc1C(=O)Nc1cc(C(=O)NN(Cc2ccc(-c3cc(Cl)ccc3F)cc2)C[C@@H](O)C(=O)O)[nH]n1 [Example 8-49, (R)-3-{N-(5′-Chloro-2′-fluoro-biphenyl-4-ylmethyl)-N′-[5-(2-methoxy-benzoylamino)-2H-pyrazole-3-carbonyl]-hydrazino}-2-hydroxy-propionic acid]	≤ 1
O=C(NN(Cc1ccc(-c2cc(Cl)ccc2F)cc1)C[C@@H](O)C(=O)O)c1cc(-c2cnccn2)[nH]n1 [Example 8-50, (R)-3-[N-(5′-Chloro-2′-fluoro-biphenyl-4-ylmethyl)-N′-(5-pyrazin-2-yl-1H-pyrazole-3-carbonyl)-hydrazino]-2-hydroxy-propionic acid]	≤ 1
O=C(NN(Cc1ccc(-c2cc(Cl)ccc2F)cc1)C[C@@H](O)C(=O)O)c1cc(O)n(-c2ccccn2)n1 [Example 8-51, (R)-3-[N-(5′-Chloro-2′-fluoro-biphenyl-4-ylmethyl)-N′-(5-hydroxy-1-pyridin-2-yl-1H-pyrazole-3-carbonyl)-hydrazino]-2-hydroxy-propionic acid]	1.26 to 10
O=C(NN(Cc1ccc(-c2cc(Cl)ccc2F)cc1)C[C@@H](O)C(=O)O)c1cc(O)n(-c2ccccc2F)n1 [Example 8-52, (R)-3-{N-(5′-Chloro-2′-fluoro-biphenyl-4-ylmethyl)-N′-[1-(2-fluoro-phenyl)-5-hydroxy-1H-pyrazole-3-carbonyl]-hydrazino}-2-hydroxy-propionic acid]	1.26 to 10
O=C(O)Cn1nc(C(=O)NN(Cc2ccc(-c3cc(Cl)ccc3F)cc2)C[C@@H](O)C(=O)O)cc1C1CC1 [Example 8-53, (R)-3-[N′-(1-Carboxymethyl-5-cyclopropyl-1H-pyrazole-3-carbonyl)-N-(5′-chloro-2′-fluoro-biphenyl-4-ylmethyl)-hydrazino]-2-hydroxy-propionic acid]	1.26 to 10
CC(C)c1cc(C(=O)NN(Cc2ccc(-c3cc(Cl)ccc3F)cc2)C[C@@H](O)C(=O)O)nn1CC(=O)O [Example 8-54, (R)-3-[N′-(1-Carboxymethyl-5-isopropyl-1H-pyrazole-3-carbonyl)-N-(5′-chloro-2′-fluoro-biphenyl-4-ylmethyl)-hydrazino]-2-hydroxy-propionic acid]	1.26 to 10
CCCCc1cc(C(=O)NN(Cc2ccc(-c3cc(Cl)ccc3F)cc2)C[C@@H](O)C(=O)O)nn1CC(=O)O [Example 8-55, (R)-3-[N′-(5-Butyl-1-carboxymethyl-1H-pyrazole-3-carbonyl)-N-(5′-chloro-2′-fluoro-biphenyl-4-ylmethyl)-hydrazino]-2-hydroxy-propionic acid]	1.26 to 10
CC(C)(O)c1cc(C(=O)NN(Cc2ccc(-c3cc(Cl)ccc3F)cc2)C[C@@H](O)C(=O)O)nn1CC(=O)O [Example 8-56, (R)-3-[N′-[1-Carboxymethyl-5-(1-hydroxy-1-methyl-ethyl)-1H-pyrazole-3-carbonyl]-N-(5′-chloro-2′-fluoro-biphenyl-4-ylmethyl)-hydrazino]-2-hydroxy-propionic acid]	1.26 to 10
CCOc1cc(C(=O)NN(Cc2ccc(-c3cc(Cl)ccc3F)cc2)C[C@@H](O)C(=O)O)n[nH]1 [Example 8-57, (R)-3-[N-(5′-Chloro-2′-fluoro-biphenyl-4-ylmethyl)-N′-(5-ethoxy-1H-pyrazole-3-carbonyl)-hydrazino]-2-hydroxy-propionic acid]	1.26 to 10
O=C(NN(Cc1ccc(-c2cc(Cl)ccc2F)cc1)C[C@@H](O)C(=O)O)c1ccc(=O)[nH]n1 [Example 8-58, (R)-3-[N-(5′-Chloro-2′-fluoro-biphenyl-4-ylmethyl)-N′-(6-oxo-1,6-dihydro-pyridazine-3-carbonyl)-hydrazino]-2-hydroxy-propionic acid]	≤ 1
Cc1ccc(Cl)cc1-c1ccc(CN(C[C@@H](O)C(=O)O)NC(=O)c2nnn[nH]2)cc1 [Example 8-59, (R)-3-[N-(5′-Chloro-2′-methyl-biphenyl-4-ylmethyl)-N′-(1H-tetrazole-5-carbonyl)-hydrazino]-2-hydroxy-propionic acid]	≤ 1
O=C(NN(Cc1ccc(-c2cc(Cl)ccc2Cl)cc1)C[C@@H](O)C(=O)O)c1nnn[nH]1 [Example 8-60, (R)-3-[N-(2′,5′-Dichloro-biphenyl-4-ylmethyl)-N′-(1H-tetrazole-5-carbonyl)-hydrazino]-2-hydroxy-propionic acid]	≤ 1
O=C(NN(Cc1ccc(-c2cc(Cl)ccc2F)cc1)C[C@@H](O)C(=O)O)c1nn(-c2ccccc2)c(=O)[nH]1 [Example 8-64, (R)-3-[N-(5′-Chloro-2′-fluoro-biphenyl-4-ylmethyl)-N′-(5-oxo-1-phenyl-4,5-dihydro-1H-[1,2,4]triazole-3-carbonyl)-hydrazino]-2-hydroxy-propionic acid]	≤ 1
O=C(NN(Cc1ccc(-c2cc(Cl)ccc2F)cc1)C[C@@H](O)C(=O)O)c1nn(-c2ccc(F)cc2)c(=O)[nH]1 [Example 8-65, (R)-3-{N-(5′-Chloro-2′-fluoro-biphenyl-4-ylmethyl)-N′-[1-(4-fluoro-phenyl)-5-oxo-4,5-dihydro-1H-[1,2,4]triazole-3-carbonyl]-hydrazino}-2-hydroxy-propionic acid]	1.26 to 10
O=C(NN(Cc1ccc(-c2cc(Cl)ccc2F)cc1)C[C@@H](O)C(=O)O)c1nn(-c2ccccc2Cl)c(=O)[nH]1 [Example 8-66, (R)-3-{N-(5′-Chloro-2′-fluoro-biphenyl-4-ylmethyl)-N′-[1-(2-chloro-phenyl)-5-oxo-4,5-dihydro-1H-[1,2,4]triazole-3-carbonyl]-hydrazino}-2-hydroxy-propionic acid]	1.26 to 10
O=C(NN(Cc1ccc(-c2cc(Cl)ccc2F)cc1)C[C@@H](O)C(=O)O)c1nn(-c2cccc(Cl)c2)c(=O)[nH]1 [Example 8-67, (R)-3-{N-(5′-Chloro-2′-fluoro-biphenyl-4-ylmethyl)-N′-[1-(3-chloro-phenyl)-5-oxo-4,5-dihydro-1H-[1,2,4]triazole-3-carbonyl]-hydrazino}-2-hydroxy-propionic acid]	≤ 1
Cc1cc(C(=O)NN(Cc2ccc(-c3cc(Cl)ccc3F)cc2)C[C@@H](O)C(=O)O)cc2[nH]nnc12 [Example 8-68, (R)-3-[N-(5′-Chloro-2′-fluoro-biphenyl-4-ylmethyl)-N′-(7-methyl-3H-benzotriazole-5-carbonyl)-hydrazino]-2-hydroxy-propionic acid]	1.26 to 10
O=C(NN(Cc1ccc(-c2cc(Cl)ccc2F)cc1)C[C@@H](O)C(=O)O)c1cc(Cl)c2nn[nH]c2c1 [Example 8-69, (R)-3-[N′-(7-Chloro-3H-benzotriazole-5-carbonyl)-N-(5′-chloro-2′-fluoro-biphenyl-4-ylmethyl)-hydrazino]-2-hydroxy-propionic acid]	≤ 1
O=C(NN(Cc1ccc(-c2cc(Cl)ccc2F)cc1)C[C@@H](O)C(=O)O)c1cc(F)c2nn[nH]c2c1 [Example 8-73, (R)-3-[N-(5′-Chloro-2′-fluoro-biphenyl-4-ylmethyl)-N′-(7-fluoro-3H-benzotriazole-5-carbonyl)-hydrazino]-2-hydroxy-propionic acid]	≤ 1
O=C(NN(Cc1ccc(-c2cc(Cl)ccc2F)cc1)C[C@@H](O)C(=O)O)c1c[nH]c(=O)o1 [Example 8-74, (R)-3-[N-(5′-Chloro-2′-fluoro-biphenyl-4-ylmethyl)-N′-(2-oxo-2,3-dihydro-oxazole-5-carbonyl)-hydrazino]-2-hydroxy-propionic acid]	≤ 1
O=C(NN(Cc1ccc(-c2cc(Cl)ccc2F)cc1)C[C@@H](O)C(=O)O)c1cnn[nH]1 [Example 8-75, (R)-3-[N-(5′-Chloro-2′-fluoro-biphenyl-4-ylmethyl)-N′-(3H-[1,2,3]triazole-4-carbonyl)-hydrazino]-2-hydroxy-propionic acid]	≤ 1
O=C(NN(Cc1ccc(-c2cc(Cl)ccc2F)cc1)C[C@@H](O)C(=O)O)c1cn(O)nn1 [Example 8-76, (R)-3-[N-(5′-Chloro-2′-fluoro-biphenyl-4-ylmethyl)-N′-(1-hydroxy-1H-[1,2,3]triazole-4-carbonyl)-hydrazino]-2-hydroxy-propionic acid]	≤ 1
Cc1ccc(Cl)cc1-c1ccc(CN(C[C@@H](O)C(=O)O)NC(=O)c2cn(O)nn2)cc1 [Example 8-80, (R)-3-[N-(5′-Chloro-2′-methyl-biphenyl-4-ylmethyl)-N′-(1-hydroxy-1H-[1,2,3]triazole-4-carbonyl)-hydrazino]-2-hydroxy-propionic acid]	≤ 1
O=C(NN(Cc1ccc(-c2cc(Cl)cc(Cl)c2)cc1)C[C@@H](O)C(=O)O)c1cn(O)nn1 [Example 8-81, (R)-3-[N-(3′,5′-Dichloro-biphenyl-4-ylmethyl)-N′-(1-hydroxy-1H-[1,2,3]triazole-4-carbonyl)-hydrazino]-2-hydroxy-propionic acid]	12.6 to 100
O=C(NN(Cc1ccc(-c2cc(Cl)ccc2F)cc1)C[C@@H](O)C(=O)O)c1n[nH]c(Cl)n1 [Example 8-82, (R)-3-[N-(5′-Chloro-2′-fluoro-biphenyl-4-ylmethyl)-N′-(5-chloro-1H-[1,2,4]triazole-3-carbonyl)-hydrazino]-2-hydroxy-propionic acid]	≤ 1
O=C(NN(Cc1ccc(-c2cc(Cl)ccc2F)cc1)C[C@@H](O)C(=O)O)c1cnc(O)s1 [Example 8-83, (R)-3-[N-(5′-Chloro-2′-fluoro-biphenyl-4-ylmethyl)-N′-(2-hydroxy-thiazole-5-carbonyl)-hydrazino]-2-hydroxy-propionic acid]	≤ 1
O=C(NN(Cc1ccc(-c2cccc(Cl)c2)cc1F)C[C@@H](O)C(=O)O)c1cc(O)no1 [Example 9A, (R)-3-[N-(3′-Chloro-3-fluorobiphenyl-4-ylmethyl)-N′-(3-hydroxyisoxazole-5-carbonyl)-hydrazino]-2-hydroxpropionic Acid]	≤ 1
